The record followed here is patent publication US9296741B2, “Bromodomain inhibitors” (priority 2012, dated 2016).

Each structure is given as a SMILES string.

One may read the Ki as the dissociation constant of the complex between target and ligand, obtained from inhibition or displacement. Read a high Ki as lower affinity.

Data set [1] is described as follows: Mouse liver microsome stability assay. Type of data set: in vitro ADME. The following applies: male, CD1, mouse, microsomes, pH 7.4. In general terms: Microsomes from liver hold many membrane-bound enzymes, among them those of drug oxidation.
Data set [2] is described as follows: Rat liver microsome stability assay. The format is in vitro ADME. The following applies: rat liver microsomes (male Sprague-Dawley), 0.5 μM test compound, 0.25 mg/mL microsomal protein, pH 7.4, 37° C.; read-out: Stability in rat liver microsomes (t1/2 in minutes).
A short description of data set [3]: Human liver microsome stability assay. Type of data set: in vitro ADME. The following applies: both sexes, human, microsomes, pH 7.4.
Data set [4] relates to breast cancer cell line MX-1. Briefly: MX-1 cell line proliferation assay. The format is cell-based, human. To be noted: Homo sapiens, MX1, 72 h; MX-1 cells, 3-day proliferation, Cell Titer Glo; read-out: Cellular proliferation: EC50. For orientation: Cellular ATP, detected with luciferase, serves as a proxy for viable cell number.
Data set [5] concerns LPS induced IL-6 production. Description: LPS (lipopolysaccharide) induced IL-6 production mouse assay. Type of data set: in vivo. The following applies: Mus musculus, read-out: Inhibition of LPS induced IL-6 production in Mice, % inhibition at 3 mg/kg; 3 mg/kg oral, 1 h before LPS; serum IL-6 2 h after LPS.
Data set [6] deals with human BRD4 first bromodomain (BDI_K57-E168) (Homo sapiens (Human), UniProt O60885). Description: TR-FRET bromodomain binding assay, BRD4 first bromodomain. In general terms: TR-FRET usually uses a lanthanide donor and a delayed reading to cut background.
Data set [7] concerns the target human BRD4 second bromodomain (BDII_E352-M457) (Homo sapiens (Human), UniProt O60885). Briefly: TR-FRET bromodomain binding assay, BRD4 second bromodomain.

As to `CNS(=O)(=O)c1cnc(NCC2CC2)c(-c2cn(C)c(=O)c3[nH]ccc23)c1` [Example 210, 6-[(cyclopropylmethyl)amino]-N-methyl-5-(6-methyl-7-oxo-6,7-dihydro-1H-pyrrolo[2,3-c]pyridin-4-yl)pyridine-3-sulfonamide], the half-life at 0.5 μM is over 2 h in data set [1], over 2 h in data set [2] and 1.73 h in data set [3]. Also, in data set [4], the EC50 is 0.0367 µM. In addition, in data set [5], the inhibition in vivo at 3 mg/kg was 78%.
For the molecule `Cn1cc(-c2cc(CS(C)(=O)=O)ccc2NCC2CC2)c2cc[nH]c2c1=O` [Example 328, 4-{2-[(cyclopropylmethyl)amino]-5-[(methylsulfonyl)methyl]phenyl}-6-methyl-1,6-dihydro-7H-pyrrolo[2,3-c]pyridin-7-one], the half-life at 0.5 μM is over 2 h in data set [1], 0.6 h in data set [2] and over 2 h in data set [3]. The EC50 in data set [4] stood at 0.0426 µM. Moreover, in data set [5], the inhibition in vivo at 3 mg/kg was 40%.
Consider `Cn1cc(-c2cc(S(C)(=O)=O)ccc2NCC2CC2)c2cc[nH]c2c1=O` [Example 329, 4-{2-[(cyclopropylmethyl)amino]-5-(methylsulfonyl)phenyl}-6-methyl-1,6-dihydro-7H-pyrrolo[2,3-c]pyridin-7-one], for which the half-life at 0.5 μM in data set [1], in data set [2] and in data set [3] was over 2 h in each case. Moreover, the EC50 in data set [4] came out at 0.0171 µM. Besides, in data set [5], the inhibition in vivo at 3 mg/kg amounted to 63%.
Take `Cn1cc(-c2cc(S(C)(=O)=O)ccc2Oc2cccc(F)c2)c2cc[nH]c2c1=O` [Example 150, 4-[2-(3-fluorophenoxy)-5-(methylsulfonyl)phenyl]-6-methyl-1,6-dihydro-7H-pyrrolo[2,3-c]pyridin-7-one]: the inhibition constant Ki in data set [6] amounted to 0.0097 µM; in data set [7], 0.0042 µM. For the same molecule, the EC50 in data set [4] stood at 0.0665 µM. Moreover, the inhibition in vivo at 3 mg/kg in data set [5] came to 54%.
On the same counts, the results for `Cn1cc(-c2cc(S(C)(=O)=O)ccc2Oc2ccc(F)cc2)c2cc[nH]c2c1=O` [Example 151, 4-[2-(4-fluorophenoxy)-5-(methylsulfonyl)phenyl]-6-methyl-1,6-dihydro-7H-pyrrolo[2,3-c]pyridin-7-one] are 0.0107 µM, 0.0081 µM, 0.0549 µM and 66%.
In the case of `CCS(=O)(=O)c1ccc(OCC2CC2)c(-c2cn(C)c(=O)c3[nH]ccc23)c1` [Example 198, 4-[2-(cyclopropylmethoxy)-5-(ethylsulfonyl)phenyl]-6-methyl-1,6-dihydro-7H-pyrrolo[2,3-c]pyridin-7-one], the results for the Ki in data set [6] and in data set [7] were 0.0013 µM and 0.0016 µM, respectively. Besides, in data set [1], the half-life at 0.5 μM worked out at 0.917 h. The EC50 in data set [4] worked out at 0.0093 µM. Besides, the inhibition in vivo at 3 mg/kg in data set [5] was determined as 66%.
Take `CNS(=O)(=O)c1cnc(OC2CCOC2)c(-c2cn(C)c(=O)c3[nH]ccc23)c1` (centres unmarked) [Example 87, N-methyl-5-(6-methyl-7-oxo-6,7-dihydro-1H-pyrrolo[2,3-c]pyridin-4-yl)-6-(tetrahydrofuran-3-yloxy)pyridine-3-sulfonamide]: the half-life at 0.5 μM in data set [2] is 0.383 h; in data set [3] it was over 2 h. Also, the EC50 in data set [4] stood at 0.0534 µM. Besides, in data set [5], the inhibition in vivo at 3 mg/kg is 57%.
As for `Cn1cc(-c2cc(S(C)(=O)=O)ccc2Oc2ccccc2F)c2cc[nH]c2c1=O` [Example 149, 4-[2-(2-fluorophenoxy)-5-(methylsulfonyl)phenyl]-6-methyl-1,6-dihydro-7H-pyrrolo[2,3-c]pyridin-7-one], the Ki in data set [6] worked out at 0.0115 µM; in data set [7] it was 0.003 µM. Also, the EC50 in data set [4] worked out at 0.0297 µM. In addition, the inhibition in vivo at 3 mg/kg in data set [5] was 69%.
In the case of `CCS(=O)(=O)c1ccc(O[C@H]2CC[C@H](O)CC2)c(-c2cn(C)c(=O)c3[nH]ccc23)c1` [Example 203, 4-{5-(ethylsulfonyl)-2-[(trans-4-hydroxycyclohexyl)oxy]phenyl}-6-methyl-1,6-dihydro-7H-pyrrolo[2,3-c]pyridine-7-one], the Ki in data set [6] amounted to 0.00069 µM; in data set [7], 0.00075 µM. For the same molecule, the half-life at 0.5 μM in data set [2] is over 2 h. Moreover, the EC50 in data set [4] was determined as 0.0047 µM. For the same molecule, in data set [5], the inhibition in vivo at 3 mg/kg was 78%.
Turning to `Cn1cc(-c2cc(S(C)(=O)=O)ccc2NC2CCOC2)c2cc[nH]c2c1=O` (centres unmarked) [Example 167, 6-methyl-4-[5-(methylsulfonyl)-2-(tetrahydrofuran-3-ylamino)phenyl]-1,6-dihydro-7H-pyrrolo[2,3-c]pyridin-7-one], the Ki in data set [6] was determined as 0.0065 µM; in data set [7] it was 0.0122 µM. Also, the EC50 in data set [4] is 0.043 µM. Further, the inhibition in vivo at 3 mg/kg in data set [5] was 64%.
As to `Cn1cc(-c2cc(S(N)(=O)=O)cnc2OC2CCOC2)c2cc[nH]c2c1=O` (centres unmarked) [Example 86, 5-(6-methyl-7-oxo-6,7-dihydro-1H-pyrrolo[2,3-c]pyridin-4-yl)-6-(tetrahydrofuran-3-yloxy)pyridine-3-sulfonamide], the half-life at 0.5 μM in data set [1] was 0.717 h; in data set [2] it was over 2 h; in data set [3], over 2 h. For the same molecule, the EC50 in data set [4] was 0.182 µM. In addition, the inhibition in vivo at 3 mg/kg in data set [5] was determined as 55%.
For `Cn1cc(-c2cc(NS(C)(=O)=O)cc(F)c2Oc2ccccc2)c2cc[nH]c2c1=O` [Example 24, N-[3-fluoro-5-(6-methyl-7-oxo-6,7-dihydro-1H-pyrrolo[2,3-c]pyridin-4-yl)-4-phenoxyphenyl]methanesulfonamide], the values for the half-life at 0.5 μM in data set [1], in data set [2] and in data set [3] were 0.917 h, 0.0833 h and 0.483 h, respectively. The EC50 in data set [4] was found to be 0.0126 µM. Moreover, in data set [5], the inhibition in vivo at 3 mg/kg came to 58%.
On to `CCS(=O)(=O)c1ccc(O[C@H]2CC[C@@H](O)CC2)c(-c2cn(C)c(=O)c3[nH]ccc23)c1` [Example 202, 4-{5-(ethylsulfonyl)-2-[(cis-4-hydroxycyclohexyl)oxy]phenyl}-6-methyl-1,6-dihydro-7H-pyrrolo[2,3-c]pyridin-7-one], for which the inhibition constant (Ki) in data set [6] came to 0.0017 µM; in data set [7] it was 0.0014 µM. For the same molecule, the half-life at 0.5 μM in data set [2] is over 2 h. The EC50 in data set [4] was 0.0228 µM. Also, the inhibition in vivo at 3 mg/kg in data set [5] worked out at 68%.
Take `CNS(=O)(=O)c1cnc(Oc2ccc(F)cc2F)c(-c2cn(C)c(=O)c3[nH]ccc23)c1` [Example 246, 6-(2,4-difluorophenoxy)-N-methyl-5-(6-methyl-7-oxo-6,7-dihydro-1H-pyrrolo[2,3-c]pyridin-4-yl)pyridine-3-sulfonamide]: the half-life at 0.5 μM turned out to be 0.933 h in data set [1], 0.883 h in data set [2] and 0.867 h in data set [3]. Besides, the EC50 in data set [4] stood at 0.0975 µM. The inhibition in vivo at 3 mg/kg in data set [5] turned out to be 71%.
The matching figures for `CCS(=O)(=O)c1ccc(OCC2CC2)c(-c2nn(C)c(=O)c3[nH]ccc23)c1` [Example 204, 4-[2-(cyclopropylmethoxy)-5-(ethylsulfonyl)phenyl]-6-methyl-1,6-dihydro-7H-pyrrolo[2,3-d]pyridazin-7-one]: 1.13 h, 1.35 h, over 2 h, 0.0829 µM and 35%.
Take `Cn1cc(-c2cc(NS(C)(=O)=O)ccc2Oc2ccc(F)cc2)c2cc[nH]c2c1=O` [Example 26, N-[4-(4-fluorophenoxy)-3-(6-methyl-7-oxo-6,7-dihydro-1H-pyrrolo[2,3-c]pyridin-4-yl)phenyl]methanesulfonamide]: the inhibitory constant (Ki) in data set [6] was 0.0021 µM; in data set [7], 0.0033 µM. The EC50 in data set [4] stood at 0.0171 µM. The inhibition in vivo at 3 mg/kg in data set [5] is 60%.
As for `Cn1cc(-c2cc(S(N)(=O)=O)ccc2OCC2CC2)c2cc[nH]c2c1=O` [Example 249, 4-(cyclopropylmethoxy)-3-(6-methyl-7-oxo-6,7-dihydro-1H-pyrrolo[2,3-c]pyridin-4-yl)benzenesulfonamide], the half-life at 0.5 μM in data set [1], in data set [2] and in data set [3] was over 2 h in each case. The EC50 in data set [4] was determined as 0.0144 µM. The inhibition in vivo at 3 mg/kg in data set [5] turned out to be 59%.
`Cn1cc(-c2cc(CS(C)(=O)=O)ccc2Oc2ccc(F)cc2F)c2cc[nH]c2c1=O` [Example 287, 4-{2-(2,4-difluorophenoxy)-5-[(methylsulfonyl)methyl]phenyl}-6-methyl-1,6-dihydro-7H-pyrrolo[2,3-c]pyridin-7-one]: the half-life at 0.5 μM was 0.483 h in data set [1], 1.93 h in data set [2] and over 2 h in data set [3]. Further, the EC50 in data set [4] is 0.0195 µM. In data set [5], the inhibition in vivo at 3 mg/kg is 73%.
The matching figures for `CCS(=O)(=O)Nc1ccc(Oc2ccc(F)cc2F)c(-c2nn(C)c(=O)c3[nH]ccc23)c1` [Example 160, N-[4-(2,4-difluorophenoxy)-3-(6-methyl-7-oxo-6,7-dihydro-1H-pyrrolo[2,3-d]pyridazin-4-yl)phenyl]ethanesulfonamide]: 0.35 h, 1.98 h, 1.12 h, 0.119 µM and 51%.
